In patent US20250186405A1, “Compound For Use In Treating Narcolepsy” (Alkermes, Inc., priority 2023, published 2025):

System: healthy adult subjects
Experiment: Part 1 SAD: treatment-emergent adverse events after single oral dose (N = 6 per dose)
Protocol: Part 1 of the study is a SAD evaluation in healthy subjects consisting of 6 cohorts: Cohorts 1-6 received powder-in-capsule or matching placebo. There were approximately 8 subjects per cohort. Dose levels were as follows:
No food was given for at least 4 hours after dose administration. Water was allowed ad libitum except for the time 1 hour before and 1 hour after study drug administration. Safety assessments including AEs, safety ECGs, vital signs, and clinical laboratory tests were conducted, and plasma PK samples were collected.
Adverse events (AEs) and serious adverse events (SAEs) were monitored continuously until the completion of the study.

CS(=O)(=O)N[C@H]1CCCN2C(=O)COc3ccccc3C3CCC(CC3)OCC12 (stereo partly drawn) [Compound A, N-[(4S,4aR,7α,10α)-1,2,3,4,4a,5,7,8,9,10,16,17-dodecahydro-17-oxo-7,10-ethanopyrido[1,2-d][1,7,4]benzodioxaazacyclotridecin-4-yl]methanesulfonamide]
AE Leading to Study Drug Discontinuation (1 mg): 0 n | Any SAEs (1 mg): 0 n | Any TEAE (1 mg): 4 n | Death (1 mg): 0 n | TEAE Anxiety (1 mg): 0 n | TEAE Aspartate aminotransferase increased (1 mg): 0 n | TEAE Back pain (1 mg): 0 n | TEAE Blood pressure increased (1 mg): 0 n | TEAE Dermatitis contact (1 mg): 1 n | TEAE Dizziness (1 mg): 0 n | TEAE Fatigue (1 mg): 0 n | TEAE Headache (1 mg): 0 n | TEAE Hot flush (1 mg): 0 n | TEAE Hypervigilance (1 mg): 0 n | TEAE Insomnia (1 mg): 0 n | TEAE Metamorphopsia (1 mg): 0 n | TEAE Nausea (1 mg): 0 n | TEAE Oropharyngeal pain (1 mg): 0 n | TEAE Pharyngitis (1 mg): 1 n | TEAE Pollakiuria (1 mg): 0 n | TEAE Skin hyperpigmentation (1 mg): 1 n | TEAE Upper respiratory tract infection (1 mg): 0 n | TEAE Urinary incontinence (1 mg): 0 n | TEAE Vision blurred (1 mg): 0 n | TEAE by Highest Relationship: Not Related (1 mg): 4 n | TEAE by Highest Relationship: Related (1 mg): 0 n | TEAE by Highest Severity: Mild (1 mg): 1 n | TEAE by Highest Severity: Moderate (1 mg): 3 n | TEAE by Highest Severity: Severe (1 mg): 0 n | AE Leading to Study Drug Discontinuation (3 mg): 0 n | Any SAEs (3 mg): 0 n | Any TEAE (3 mg): 0 n | Death (3 mg): 0 n | TEAE Anxiety (3 mg): 0 n | TEAE Aspartate aminotransferase increased (3 mg): 0 n | TEAE Back pain (3 mg): 0 n | TEAE Blood pressure increased (3 mg): 0 n | TEAE Dermatitis contact (3 mg): 0 n | TEAE Dizziness (3 mg): 0 n | TEAE Fatigue (3 mg): 0 n | TEAE Headache (3 mg): 0 n | TEAE Hot flush (3 mg): 0 n | TEAE Hypervigilance (3 mg): 0 n | TEAE Insomnia (3 mg): 0 n | TEAE Metamorphopsia (3 mg): 0 n | TEAE Nausea (3 mg): 0 n | TEAE Oropharyngeal pain (3 mg): 0 n | TEAE Pharyngitis (3 mg): 0 n | TEAE Pollakiuria (3 mg): 0 n | TEAE Skin hyperpigmentation (3 mg): 0 n | TEAE Upper respiratory tract infection (3 mg): 0 n | TEAE Urinary incontinence (3 mg): 0 n | TEAE Vision blurred (3 mg): 0 n | TEAE by Highest Relationship: Not Related (3 mg): 0 n | TEAE by Highest Relationship: Related (3 mg): 0 n | TEAE by Highest Severity: Mild (3 mg): 0 n | TEAE by Highest Severity: Moderate (3 mg): 0 n | TEAE by Highest Severity: Severe (3 mg): 0 n | AE Leading to Study Drug Discontinuation (8 mg): 0 n | Any SAEs (8 mg): 0 n | Any TEAE (8 mg): 1 n | Death (8 mg): 0 n | TEAE Anxiety (8 mg): 0 n | TEAE Aspartate aminotransferase increased (8 mg): 0 n | TEAE Back pain (8 mg): 0 n | TEAE Blood pressure increased (8 mg): 0 n | TEAE Dermatitis contact (8 mg): 0 n | TEAE Dizziness (8 mg): 0 n | TEAE Fatigue (8 mg): 0 n | TEAE Headache (8 mg): 0 n | TEAE Hot flush (8 mg): 0 n | TEAE Hypervigilance (8 mg): 0 n | TEAE Insomnia (8 mg): 0 n | TEAE Metamorphopsia (8 mg): 0 n | TEAE Nausea (8 mg): 0 n | TEAE Oropharyngeal pain (8 mg): 0 n | TEAE Pharyngitis (8 mg): 0 n | TEAE Pollakiuria (8 mg): 0 n | TEAE Skin hyperpigmentation (8 mg): 0 n | TEAE Upper respiratory tract infection (8 mg): 1 n | TEAE Urinary incontinence (8 mg): 0 n | TEAE Vision blurred (8 mg): 0 n | TEAE by Highest Relationship: Not Related (8 mg): 1 n | TEAE by Highest Relationship: Related (8 mg): 0 n | TEAE by Highest Severity: Mild (8 mg): 1 n | TEAE by Highest Severity: Moderate (8 mg): 0 n | TEAE by Highest Severity: Severe (8 mg): 0 n | AE Leading to Study Drug Discontinuation (15 mg): 0 n | Any SAEs (15 mg): 0 n | Any TEAE (15 mg): 4 n | Death (15 mg): 0 n | TEAE Anxiety (15 mg): 1 n | TEAE Aspartate aminotransferase increased (15 mg): 0 n | TEAE Back pain (15 mg): 0 n | TEAE Blood pressure increased (15 mg): 0 n | TEAE Dermatitis contact (15 mg): 0 n | TEAE Dizziness (15 mg): 2 n | TEAE Fatigue (15 mg): 0 n | TEAE Headache (15 mg): 0 n | TEAE Hot flush (15 mg): 1 n | TEAE Hypervigilance (15 mg): 1 n | TEAE Insomnia (15 mg): 1 n | TEAE Metamorphopsia (15 mg): 1 n | TEAE Nausea (15 mg): 0 n | TEAE Oropharyngeal pain (15 mg): 0 n | TEAE Pharyngitis (15 mg): 0 n | TEAE Pollakiuria (15 mg): 1 n | TEAE Skin hyperpigmentation (15 mg): 0 n | TEAE Upper respiratory tract infection (15 mg): 0 n | TEAE Urinary incontinence (15 mg): 0 n | TEAE Vision blurred (15 mg): 1 n | TEAE by Highest Relationship: Not Related (15 mg): 0 n | TEAE by Highest Relationship: Related (15 mg): 4 n | TEAE by Highest Severity: Mild (15 mg): 4 n | TEAE by Highest Severity: Moderate (15 mg): 0 n | TEAE by Highest Severity: Severe (15 mg): 0 n | AE Leading to Study Drug Discontinuation (25 mg): 0 n | Any SAEs (25 mg): 0 n | Any TEAE (25 mg): 4 n | Death (25 mg): 0 n | TEAE Anxiety (25 mg): 0 n | TEAE Aspartate aminotransferase increased (25 mg): 0 n | TEAE Back pain (25 mg): 0 n | TEAE Blood pressure increased (25 mg): 0 n | TEAE Dermatitis contact (25 mg): 0 n | TEAE Dizziness (25 mg): 4 n | TEAE Fatigue (25 mg): 1 n | TEAE Headache (25 mg): 0 n | TEAE Hot flush (25 mg): 0 n | TEAE Hypervigilance (25 mg): 0 n | TEAE Insomnia (25 mg): 0 n | TEAE Metamorphopsia (25 mg): 0 n | TEAE Nausea (25 mg): 0 n | TEAE Oropharyngeal pain (25 mg): 1 n | TEAE Pharyngitis (25 mg): 0 n | TEAE Pollakiuria (25 mg): 1 n | TEAE Skin hyperpigmentation (25 mg): 0 n | TEAE Upper respiratory tract infection (25 mg): 0 n | TEAE Urinary incontinence (25 mg): 0 n | TEAE Vision blurred (25 mg): 0 n | TEAE by Highest Relationship: Not Related (25 mg): 0 n | TEAE by Highest Relationship: Related (25 mg): 4 n | TEAE by Highest Severity: Mild (25 mg): 4 n | TEAE by Highest Severity: Moderate (25 mg): 0 n | TEAE by Highest Severity: Severe (25 mg): 0 n | AE Leading to Study Drug Discontinuation (50 mg): 0 n | Any SAEs (50 mg): 0 n | Any TEAE (50 mg): 2 n | Death (50 mg): 0 n | TEAE Anxiety (50 mg): 0 n | TEAE Aspartate aminotransferase increased (50 mg): 1 n | TEAE Back pain (50 mg): 0 n | TEAE Blood pressure increased (50 mg): 1 n | TEAE Dermatitis contact (50 mg): 0 n | TEAE Dizziness (50 mg): 2 n | TEAE Fatigue (50 mg): 0 n | TEAE Headache (50 mg): 1 n | TEAE Hot flush (50 mg): 0 n | TEAE Hypervigilance (50 mg): 0 n | TEAE Insomnia (50 mg): 0 n | TEAE Metamorphopsia (50 mg): 0 n | TEAE Nausea (50 mg): 2 n | TEAE Oropharyngeal pain (50 mg): 0 n | TEAE Pharyngitis (50 mg): 0 n | TEAE Pollakiuria (50 mg): 2 n | TEAE Skin hyperpigmentation (50 mg): 0 n | TEAE Upper respiratory tract infection (50 mg): 0 n | TEAE Urinary incontinence (50 mg): 1 n | TEAE Vision blurred (50 mg): 1 n | TEAE by Highest Relationship: Not Related (50 mg): 0 n | TEAE by Highest Relationship: Related (50 mg): 2 n | TEAE by Highest Severity: Mild (50 mg): 1 n | TEAE by Highest Severity: Moderate (50 mg): 1 n | TEAE by Highest Severity: Severe (50 mg): 0 n | AE Leading to Study Drug Discontinuation (Total (N = 36)): 0 n | Any SAEs (Total (N = 36)): 0 n | Any TEAE (Total (N = 36)): 15 n | Death (Total (N = 36)): 0 n | TEAE Anxiety (Total (N = 36)): 1 n | TEAE Aspartate aminotransferase increased (Total (N = 36)): 1 n | TEAE Back pain (Total (N = 36)): 0 n | TEAE Blood pressure increased (Total (N = 36)): 1 n | TEAE Dermatitis contact (Total (N = 36)): 1 n | TEAE Dizziness (Total (N = 36)): 8 n | TEAE Fatigue (Total (N = 36)): 1 n | TEAE Headache (Total (N = 36)): 1 n | TEAE Hot flush (Total (N = 36)): 1 n | TEAE Hypervigilance (Total (N = 36)): 1 n | TEAE Insomnia (Total (N = 36)): 1 n | TEAE Metamorphopsia (Total (N = 36)): 1 n | TEAE Nausea (Total (N = 36)): 2 n | TEAE Oropharyngeal pain (Total (N = 36)): 1 n | TEAE Pharyngitis (Total (N = 36)): 1 n | TEAE Pollakiuria (Total (N = 36)): 4 n | TEAE Skin hyperpigmentation (Total (N = 36)): 1 n | TEAE Upper respiratory tract infection (Total (N = 36)): 1 n | TEAE Urinary incontinence (Total (N = 36)): 1 n | TEAE Vision blurred (Total (N = 36)): 2 n | TEAE by Highest Relationship: Not Related (Total (N = 36)): 5 n | TEAE by Highest Relationship: Related (Total (N = 36)): 10 n | TEAE by Highest Severity: Mild (Total (N = 36)): 11 n | TEAE by Highest Severity: Moderate (Total (N = 36)): 4 n | TEAE by Highest Severity: Severe (Total (N = 36)): 0 n | Tolerability (single doses 1 to 50 mg): well tolerated
